# According to US20110288082A1, “METHODS AND COMPOSITIONS FOR INHIBITION OF THE TRANSITIONAL ENDOPLASMIC RETICULUM ATPASE” (priority 2010, published 2011):
# Where “and” joins values, the source holds several entries; their conditions need not be identical. Equal entries are not always repeated. Where two headings read alike, the source gives them in different places.
# Key:
# p97 = p97 (Homo sapiens, UniProt P55072); assay: p97 ATPase assay (Kinase Glo Plus; biomol green for compounds that interfere with luciferase); assay type: biochemical
# Sequence of p97 (P55072 2-806 limits assumed): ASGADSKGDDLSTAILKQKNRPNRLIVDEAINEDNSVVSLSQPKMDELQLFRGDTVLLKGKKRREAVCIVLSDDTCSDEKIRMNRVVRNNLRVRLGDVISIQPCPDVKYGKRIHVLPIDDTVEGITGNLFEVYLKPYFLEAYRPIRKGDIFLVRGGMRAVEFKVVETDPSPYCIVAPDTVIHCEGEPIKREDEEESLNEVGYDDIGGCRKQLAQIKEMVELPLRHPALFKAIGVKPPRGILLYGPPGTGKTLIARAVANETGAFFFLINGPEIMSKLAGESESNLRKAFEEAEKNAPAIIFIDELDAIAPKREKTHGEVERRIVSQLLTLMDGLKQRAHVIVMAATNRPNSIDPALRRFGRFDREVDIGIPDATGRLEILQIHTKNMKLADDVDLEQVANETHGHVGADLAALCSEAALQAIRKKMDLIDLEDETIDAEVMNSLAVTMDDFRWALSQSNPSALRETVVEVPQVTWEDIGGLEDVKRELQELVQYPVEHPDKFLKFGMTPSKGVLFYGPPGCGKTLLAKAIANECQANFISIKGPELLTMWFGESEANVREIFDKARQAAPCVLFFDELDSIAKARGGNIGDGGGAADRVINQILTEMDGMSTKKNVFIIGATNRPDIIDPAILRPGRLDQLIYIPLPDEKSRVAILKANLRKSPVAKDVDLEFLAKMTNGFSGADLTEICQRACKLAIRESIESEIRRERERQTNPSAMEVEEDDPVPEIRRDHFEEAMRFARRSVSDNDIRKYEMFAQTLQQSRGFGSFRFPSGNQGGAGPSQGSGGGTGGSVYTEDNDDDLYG
# Protocol: Assay Buffer (20 μL of 2.5× concentration, where 1×=50 mM Tris pH 7.4, 20 mM MgCl2, 1 mM EDTA, 0.5 mM TCEP) was dispensed into each well of a 96 well plate. Purified p97 (25 μL of 50 μM) was diluted in 975 μL, of 1× Assay Buffer and 10 μL was dispensed in each well. Test compound (10 μL) or 5% DMSO (10 μL) was then added to each well and the plate was incubated at room temperature for 10 min. The ATPase assay was carried out by adding to each well 10 μL of 500 μM ATP (pH 7.5), incubating at room temperature for 60 min, and then adding 50 μL Kinase Glo Plus reagent (Promega) followed by a final 10 min incubation at room temperature in the dark. Luminescence was read on an Analyst AD (Molecular Devices). Compounds were assayed at a range of concentrations (0, 0.048, 0.24, 1.2, 6, 30 μM) in triplicate. The percent of remaining activity for each reaction was calculated using the following mathematical expression: ((Test Compound-High Control)/(Low Control-High Control))*100. Test_Compound is defined as wells containing test compound, Low_Control is defined as wells containing DMSO, High_Control is defined as wells containing no p97 protein. […] The result was expressed as mean +/− standard error. For assays with Myriad 12 and 19, 100 μL of biomol green reagent (Enzo Life Sciences) was added to each well instead of kinase Glo Plus (Promega) and absorbance at 630 nm was measured. This was done because these compounds interfered with luciferase activity. […]
# [1] = system: p97-dependent Ub^G76V-GFP degradation in HeLa cells; assay: Ub^G76V-GFP degradation (turn-over) assay; assay type: cell-based, human
# Protocol: Ub^G76V-GFP Degradation Assay
# Two GFP images with 100 ms exposure time per well were acquired and the average GFP intensity per area of a HeLa cell was determined by using MetaXpress software. Mean GFP intensity of 300-500 cells was calculated using Excel. Normalized GFP intensity was calculated using the following formula: (Test compound−Background)/(Basal GFP intensity—Background). Where: Test compound is defined as Mean GFP intensity of Ub^G76V-GFP-expressing cells treated with the test compound. Background is defined as background GFP intensity of HeLa cells. Basal GFP intensity is defined as mean GFP intensity of Ub^G76V-GFP-expressing cells treated with DMSO. […] The percent of remaining k for each compound is calculated using the following formula: (Test compound/DMSO control)*100. Where: Test_compound is defined as k determined from wells containing test compound, DMSO control is defined as k determined from wells containing DMSO.
# [2] = purified p97, ATP, 60 min room temperature, mean +/- standard error
# [3] = Homo sapiens, HeLa, read-out: IC50 (μM) Ub^G76V-GFP turn over, Ub^G76V-GFP-expressing HeLa cells, degradation rate constant k from 90 to 180 min, mean +/- standard error
# [4] = Homo sapiens, HeLa, read-out: IC50 (μM) Ub^G76V-GFP turn over, p97-dependent Ub^G76V-GFP degradation turn-over assay
SMILES,IC50 (p97; [2]),"IC50 [1, 3] [µM]","IC50 ([1]; read-out: IC50 (μM) Ub^G76V-GFP turn over, Ub^G76V-GFP-expressing HeLa cells, degradation rate constant k from 90 to 180 min, mean +/- standard error) [µM]",IC50 (p97; p97 ATPase assay) [µM],"IC50 [1, 4] [µM]"
Cc1ccc(Nc2nc(NCc3ccccc3)c3ccccc3n2)cc1 [II-2],2.2 ± 0.4 µM,6.3 ± 1.4,–,–,–
Clc1ccc(Nc2nc(NCc3ccccc3)c3ccccc3n2)cc1 [II-3],5.4 ± 2 µM,5.9 ± 1.2,–,–,–
Fc1ccc(Nc2nc(NCc3ccccc3)c3ccccc3n2)cc1 [II-4],3.8 ± 1.2 µM,9.4 ± 1,–,–,–
Brc1ccc(Nc2nc(NCc3ccccc3)c3ccccc3n2)cc1 [II-5],1.8 ± 0.4 µM,6 ± 0.8,–,–,–
COc1ccc(Nc2nc(NCc3ccccc3)c3ccccc3n2)cc1 [II-6],3.8 µM and 3.5 µM,4.5 ± 1.1,4.8 ± 0.7,–,–
Cc1ccccc1Nc1nc(NCc2ccccc2)c2ccccc2n1 [II-7],3.4 ± 1.5 µM,10 ± 2,–,–,–
Clc1ccccc1Nc1nc(NCc2ccccc2)c2ccccc2n1 [II-8],–,–,–,69 ± 25,13 ± 2
Fc1ccccc1Nc1nc(NCc2ccccc2)c2ccccc2n1 [II-9],0.85 ± 0.17 µM,10 ± 2,–,–,–
Brc1ccccc1Nc1nc(NCc2ccccc2)c2ccccc2n1 [II-10],–,–,–,64 ± 24,13 ± 2
COc1ccccc1Nc1nc(NCc2ccccc2)c2ccccc2n1 [II-11],2.2 ± 0.9 µM,11 ± 3,–,–,–
Cc1cccc(Nc2nc(NCc3ccccc3)c3ccccc3n2)c1 [II-12],1.7 ± 0.5 µM,3 ± 0.7,–,–,–
Brc1cccc(Nc2nc(NCc3ccccc3)c3ccccc3n2)c1 [II-15],2.5 ± 0.5 µM,4.3 ± 0.8,–,–,–
COc1cccc(Nc2nc(NCc3ccccc3)c3ccccc3n2)c1 [II-16],2.5 ± 0.2 µM,4.3 ± 0.7,–,–,–
Clc1ccc(Nc2nc(NCc3ccccc3)c3ccccc3n2)cc1Cl [II-17],8.1 ± 2.6 µM,12 ± 2,–,–,–
Fc1ccc(Cl)cc1Nc1nc(NCc2ccccc2)c2ccccc2n1 [II-18],13 ± 3 µM,13 ± 2,–,–,–
Clc1cc(Cl)cc(Nc2nc(NCc3ccccc3)c3ccccc3n2)c1 [II-19],8.2 ± 0.3 µM,13 ± 1,–,–,–
FC(F)(F)c1cccc(Nc2nc(NCc3ccccc3)c3ccccc3n2)c1 [II-20],–,–,–,50 ± 16,21 ± 1
Ic1cccc(Nc2nc(NCc3ccccc3)c3ccccc3n2)c1 [II-21],5.2 ± 1.9 µM,36 ± 4,–,–,–
O=[N+]([O-])c1cccc(Nc2nc(NCc3ccccc3)c3ccccc3n2)c1 [II-22],5.2 ± 0.5 µM,19 ± 2,–,–,–
Cc1ccc(CNc2nc(Nc3cccc(Cl)c3)nc3ccccc23)cc1 [III-1],1.4 ± 0.3 µM,12 ± 2,–,–,–
Clc1ccc(CNc2nc(Nc3cccc(Cl)c3)nc3ccccc23)cc1 [III-2],2.8 ± 0.9 µM,7.6 ± 2.4,–,–,–
Fc1ccc(CNc2nc(Nc3cccc(Cl)c3)nc3ccccc23)cc1 [III-3],1.5 ± 0.3 µM,5.7 ± 1.3,–,–,–
Clc1cccc(Nc2nc(NCc3ccc(Br)cc3)c3ccccc3n2)c1 [III-4],7.4 ± 2 µM,10 ± 3,–,–,–
COc1ccc(CNc2nc(Nc3cccc(Cl)c3)nc3ccccc23)cc1 [III-5],2.3 ± 0.6 µM,11 ± 4,–,–,–
Cc1ccccc1CNc1nc(Nc2cccc(Cl)c2)nc2ccccc12 [III-6],4.2 ± 1.1 µM,11 ± 3,–,–,–

SMILES,IC50 (p97; [2]),"IC50 [1, 3] [µM]","IC50 ([1]; read-out: IC50 (μM) Ub^G76V-GFP turn over, Ub^G76V-GFP-expressing HeLa cells, degradation rate constant k from 90 to 180 min, mean +/- standard error) [µM]",IC50 (p97; p97 ATPase assay) [µM],"IC50 [1, 4] [µM]"
Clc1cccc(Nc2nc(NCc3ccccc3Cl)c3ccccc3n2)c1 [III-7],4.7 ± 1.4 µM,18 ± 5,–,–,–
Fc1ccccc1CNc1nc(Nc2cccc(Cl)c2)nc2ccccc12 [III-8],1.8 ± 0.5 µM,7.8 ± 2.1,–,–,–
Clc1cccc(Nc2nc(NCc3ccccc3Br)c3ccccc3n2)c1 [III-9],4 ± 1.7 µM,12 ± 5,–,–,–
COc1ccccc1CNc1nc(Nc2cccc(Cl)c2)nc2ccccc12 [III-10],1.6 ± 0.4 µM,11 ± 2,–,–,–
Cc1cccc(CNc2nc(Nc3cccc(Cl)c3)nc3ccccc23)c1 [III-11],2.3 ± 0.6 µM,9.7 ± 2.7,–,–,–
Clc1cccc(CNc2nc(Nc3cccc(Cl)c3)nc3ccccc23)c1 [III-12],5 ± 1.2 µM,15 ± 4,–,–,–
Fc1cccc(CNc2nc(Nc3cccc(Cl)c3)nc3ccccc23)c1 [III-13],1.2 ± 0.2 µM,6.3 ± 1.7,–,–,–
Clc1cccc(Nc2nc(NCc3cccc(Br)c3)c3ccccc3n2)c1 [III-14],3.7 ± 0.9 µM,9.9 ± 2,–,–,–
COc1cccc(CNc2nc(Nc3cccc(Cl)c3)nc3ccccc23)c1 [III-15],1 ± 0.1 µM,9.9 ± 1.6,–,–,–
Clc1ccc(CNc2nc(NCc3ccccc3)c3ccccc3n2)cc1 [IV-2],3.1 ± 0.2 µM,2.1 ± 0.4,–,–,–
Fc1ccc(CNc2nc(NCc3ccccc3)c3ccccc3n2)cc1 [IV-3],2.6 ± 0.2 µM,3.4 ± 0.5,–,–,–
Brc1ccc(CNc2nc(NCc3ccccc3)c3ccccc3n2)cc1 [IV-4],4.3 ± 0.9 µM,3.9 ± 0.3,–,–,–
COc1ccc(CNc2nc(NCc3ccccc3)c3ccccc3n2)cc1 [IV-5],3 ± 0.5 µM,1.3 ± 0.2,–,–,–
Cc1ccccc1CNc1nc(NCc2ccccc2)c2ccccc2n1 [IV-6],2.7 ± 0.5 µM,1.9 ± 0.4,–,–,–
Clc1ccccc1CNc1nc(NCc2ccccc2)c2ccccc2n1 [IV-7],5.3 ± 1.2 µM,2.9 ± 0.9,–,–,–
Fc1ccccc1CNc1nc(NCc2ccccc2)c2ccccc2n1 [IV-8],2.9 ± 0.4 µM,2.8 ± 0.4,–,–,–
Brc1ccccc1CNc1nc(NCc2ccccc2)c2ccccc2n1 [IV-9],2 ± 0.3 µM,3.8 ± 0.7,–,–,–
COc1ccccc1CNc1nc(NCc2ccccc2)c2ccccc2n1 [IV-10],3.6 ± 0.8 µM,1.9 ± 0.2,–,–,–
Cc1cccc(CNc2nc(NCc3ccccc3)c3ccccc3n2)c1 [IV-11],2.3 ± 0.4 µM,2.5 ± 0.5,–,–,–
Clc1cccc(CNc2nc(NCc3ccccc3)c3ccccc3n2)c1 [IV-12],2.7 ± 0.1 µM,2.5 ± 0.4,–,–,–
Clc1ccc(CNc2nc(NCc3ccccc3)c3ccccc3n2)cc1Cl [IV-17],3 ± 0.5 µM,1.9 ± 0.2,–,–,–
FC(F)(F)c1cc(CNc2nc(NCc3ccccc3)c3ccccc3n2)ccc1Cl [IV-18],4.7 ± 1 µM,2.2 ± 0.4,–,–,–
c1ccc(CNc2nc(N3CCOc4ccccc43)nc3ccsc23)cc1 [IX],0.4 ± 0.1 µM,6.4 ± 1,–,–,–
Brc1cccc2c(NCc3ccccc3)nc(NCc3ccccc3)nc12 [V1-9],3.3 ± 0.9 µM,30 ± 2,–,–,–
